# According to patent US20210038732A1, “ANTICANCER MICRORNA AND LIPID FORMULATIONS THEREOF” (INTERNA TECHNOLOGIES B.V., priority 2018, published 2021):
# Tests used:
# HEP3B, SNU449, A2058 = assay: Cell cycle distribution by imaging of nuclei (Example 4.9); format: cell-based; conditions: 1 nM, 3 nM and 10 nM, concentration-dependent; vs mock
# Description: Depending on cancer cell type 3000-6000 cells were seeded in a 96 well plate. After cells attached, they were transfected with different concentrations of miRNA-193a and cell cycle profile was measured at different time points. At selected time points media was aspirated from wells and DNA staining solution (Hoescht 33342/Saponin/PFA) was added to each well and incubated for 2 hours at 37° C. Then, cell images were taken using Thermo Celllnsite in which nuclei were specified and nuclei intensity were measured. Nuclei intensity was analyzed using program R to determine the different phases of the cell cycle (G0/G1, S, G2/M) based on the DNA content.
# Similar phenotype has been observed in Panc1 (pancreatic cancer cell) as well as H1975 (lung cancer cell) (data not shown). […] MPP2 and STMN1 associate with cytoskeleton and therefore regulate cell division and proliferation at the G2/M phase, while YWHAZ and CCNA2 play roles in regulation of G2/M phase checkpoint by binding and sequestering the cyclin-dependent kinases.
# H1299 = assay: Caspase 3/7 apoptosis assay; format: cell-based; conditions: 10 nM, normalized to mock
# Description: (§1) Depending on cancer cell type 3000-6000 cells were seeded in a 96 well plate. After cells attached, they were transfected with different concentrations of miRNA-193a and apoptosis induction was measured at different time points. This assay was performed using Promega kit. 100 uL of caspase reagent was added to 100 uL of media in each well in 96-well plate and incubated for 2 hours in the dark at room temperature. The luminescent signal was read on a luminescent plate reader.
# (§2) Different biological effects of miRNA-193a-3p have been tested in various cancer cell lines (see Table 13). For this, various cells were treated with miRNA-193a at different concentrations (1, 3, 10 nM). For all experiments controls (untreated, mock and scrambled) were measured. All assays were performed at 24h, 48h and 72h time points. Data shown in Table 13 are the results for miRNA-193a at 10 nM concentration at indicated time points. All the results have been quantified and normalized to the mock control.
# (§3) miRNA-193a treatment in various cancer cell lines decreased cell viability over time as measured by either an MTS assay or by cell count. It enhanced apoptosis induction over time as measured by a caspase 3/7 apoptosis assay. […] It is of note that due to intrinsic characteristics and gene mutation status of each cell line, performing one method to detect apoptosis is not always ideal for all cell lines.
# H1975 = assay: Caspase 3/7 apoptosis assay; format: cell-based; conditions: 10 nM, normalized to mock
# Description: as §1, §2, §3
# Panc-1 = assay: Caspase 3/7 apoptosis assay; format: cell-based; conditions: 10 nM, normalized to mock
# Description: as §1, §2, §3
# EMT6 = assay: Caspase 3/7 apoptosis assay; format: cell-based; conditions: 10 nM, normalized to mock
# Description: as §1, §2, §3
# HCT116 = assay: Caspase 3/7 apoptosis assay; format: cell-based; conditions: 10 nM, normalized to mock
# Description: as §1, §2, §3
# [1] = test system: H22 (mouse liver tumor cells); assay: Re-challenge of surviving treated mice with H22 cells (Example 4.4); format: in vivo
# Description: To investigate the long-term immunity in miRNA-193a treated mice against 4T1 cells, on day 75 after inoculation, mice treated with miRNA-193a and 8 naïve (non-tumor bearing) mice were re-challenged by subcutaneous injection of 3×10^5 4T1 mouse tumor cells in PBS (0.1 mL/mouse) into the right front flank. TV and BW were monitored for 3 weeks. Then, to investigate the immunization status of miRNA-193a treated mice against other cell types, on day 101, mice treated with miRNA-193a and 8 naïve (non-tumor bearing) mice were re-challenged by subcutaneous injection of H22 (mouse liver tumor cells) cells in PBS (0.1 mL/mouse) into the right lower flank.
# Huh7, H1299, and HCT116 = assay: Cleaved-parp protein on western blot; format: cell-based; conditions: data not shown
# Source text: as §3
# 4T1 cells = assay: Adoptive CD3+ T-cell transfer from survivors into naive mice, 4T1 challenge; format: in vivo; conditions: 1×107 CD3+ T-cells iv; followed about 5 weeks; vs control naïve mice
# Description: Adoptive transfer of CD3+ T cells form the survivor mice into naive mice was performed after spleens, auxiliary, brachial, and inguinal lymph nodes excision. Cell suspension were made from the indicated organs and pooled. Then, CD3+ T-cells were isolated from the pool using magnetic beads according the manufacturer's protocol (Miltenyi Biotech). 1×107 CD3+ T-cells per mouse were injected intravenously.
# On day 133 post-tumor cell inoculation CD3+ T-cells were recovered from the spleens, auxiliary, brachial, and inguinal lymph nodes of the surviving animals. T-cells were pooled and transferred i.v. to 6 naïve age-matched mice (1×107 CD3+ Tcells per mouse at day 0). One day post-T-cell transfer, animals were re-challenged with 3×10^5 4T1 cells in PBS (0.1 mL/mouse) in the right mammary fat pad of 6 naive age-matched mice (as control group) and the 6 mice that received CD3+ T-cells. Tumor growth was followed for about 5 weeks.
# [2] = test system: K-Ras, MCL1, ENTPD1 (CD39) and TIM-3; assay: PD effect: target gene mRNA in orthotopic 4T1 tumors by qPCR (Example 4.6); format: in vivo, mice; conditions: 10 mg/kg iv QDx2; various time points 2-72 h post final dose
# Description: To prepare cDNA, first 100 ng total RNA was mixed with Random Hexamers (Qiagen; final concentration 2 μM) in a final volume of 12.5 μl in NFW, denatured for 5 min at 70° C. and immediately cooled on ice. Next, 7.5 μl of a cDNA synthesis mix was added, consisting of 4 μl 5×RT Buffer (Promega), 0.4 μl 25 mM dNTPs (Promega), 1 μl 200 U/μL MMLV RT-enzyme (Promega), 0.5 μL 40 U/μL RNAse Inhibitor (Promega) and 1.6 μL NFW. The following cDNA synthesis protocol was used:
# Six to eight weeks old female BALB/c mice (Shanghai Lingchang Bio-Technology Co. Ltd, Shanghai, China) were injected with 3×10^5 4T1 mouse tumor cells in PBS (0.1 mL/mouse) into the mammary fat pad. At the time of randomization, the tumor volumes (TVs) ranged between 252.30-370.45 mm^3. After randomization mice received similar treatments with similar dosing regimen (see Table 11). Mice were sacrificed at pre-determined time points (see Table 11). The tumors from each mouse were collected, snap frozen in liquid nitrogen and then stored at −80° C.
# Assessed genes include K-Ras, MCL1, ENTPD1 (CD39) and TIM-3. The role and biological importance for these target genes is briefly discussed in Table 12.
# A2058 melanoma cells = assay: Adenosine assay; format: cell-based, human; conditions: miRNA-193a-3p at 10 nM, vs untreated, mock, scrambled
# Description: 4000 A2058 melanoma cells were seeded per well in a 96 well plate. 4h after seeding, cells were transfected with different concentrations of miRNA-193a-3p, scrambled control, siNT5E and siPool as control. 24h post transfection the cells were treated with 500 μM AMP and adenosine measurement was performed 24h post-treatment following steps from adenosine measurement kit (BioVision).
substance,measurement,setting,value
"miRNA-193a: duplex of the miRNA-193a-3p of SEQ ID NO: 218 (mimic, sense) with antisense strand SEQ ID NO: 219; naked in vitro, formulated in vivo (sense UGGGACUUUGUAGGCCAGUUTT; antisense AACUGGCCUACAAAGUCCCAGU; chemistry not given here; listed as Homo sapiens)",G2/M arrest,"HEP3B, SNU449, A2058",enhances the G2/M arrest
same,Apoptosis (48/72 h),H1299,↑ (Induction < 2x)
same,Apoptosis (48/72 h),H1975,↑ (Induction < 2x)
same,Apoptosis (48/72 h),Panc-1,↑↑ (Induction > 2x)
same,Apoptosis (48/72 h),EMT6,↑↑ (Induction > 2x)
same,Apoptosis (48/72 h),HCT116,↑↑ (Induction > 2x)
same,Tumor take after re-challenge with H22 cells,"[1]; re-challenge day 101, 38 days post end of treatment",100%
same,H22 tumor growth after re-challenge,"[1]; re-challenge day 101, vs naïve mice",rapid inhibition of H22 tumor growth
same,Cleaved-parp protein on western blot,"Huh7, H1299, and HCT116",enhanced cleaved-parp protein
same,4T1 tumor growth in naive mice that received CD3+ T-cells from treated survivors,4T1 cells,did not show any 4T1 tumor growth
same,Target mRNAs expression in tumor,[2],significant reduction
same,Adenosine generation,A2058 melanoma cells,reduces
